Reference: publication PMC10322970, “Modular synthesis of clickable peptides via late-stage maleimidation on C(7)-H tryptophan” (Nature Communications, 2023)

How the values were obtained:
[1] = Rh(III)-catalysed intramolecular C(7)-H maleimidation of N-pivaloyl Trp (oxidative Heck-type C-C bond, indole C7 to maleimide CH): [RhCp*Cl2]2 10 mol%, AgNTf2 40 mol%, Ag2O 1.5 eq; conditions: DCM, 12.0 mM, 80.0 °C, 24.0 h
integrin αvβ3 = integrin αvβ3 (Homo sapiens, UniProt P05106+P06756); experiment: SPR binding to immobilised integrin αvβ3; conditions: for kon: read-out: ka
integrin α5β1 = integrin α5β1 (Homo sapiens, UniProt P05556+P08648); experiment: SPR binding to immobilised integrin α5β1; conditions: for kon: read-out: ka
integrin αvβ5 = integrin αvβ5 (Homo sapiens, UniProt P06756+P18084); experiment: SPR binding to immobilised integrin αvβ5; conditions: for kon: read-out: ka
MCF-7 cells = experiment: Cytotoxicity by MTT assay, MCF-7; conditions: MCF-7 (integrin αvβ3-negative), 0–40 μM, 36 h
LO2 cells = experiment: Cytotoxicity by MTT assay, LO2; conditions: LO2 normal cells, 0–40 μM, 36 h
A549 cells = experiment: Cytotoxicity by MTT assay, A549; conditions: A549 (integrin αvβ3-positive), 0–40 μM, 36 h
MIHA cells = experiment: Cytotoxicity by MTT assay, MIHA; conditions: MIHA normal cells, 0–40 μM, 36 h
HeLa cells = experiment: Cytotoxicity by MTT assay, HeLa; conditions: HeLa (integrin αvβ3-negative), 0–40 μM, 36 h
U87MG cells = experiment: Cytotoxicity by MTT assay, U87MG; conditions: U87MG (integrin αvβ3-positive), 0–40 μM, 36 h

Chain of integrin αvβ5 (P06756 31-1048): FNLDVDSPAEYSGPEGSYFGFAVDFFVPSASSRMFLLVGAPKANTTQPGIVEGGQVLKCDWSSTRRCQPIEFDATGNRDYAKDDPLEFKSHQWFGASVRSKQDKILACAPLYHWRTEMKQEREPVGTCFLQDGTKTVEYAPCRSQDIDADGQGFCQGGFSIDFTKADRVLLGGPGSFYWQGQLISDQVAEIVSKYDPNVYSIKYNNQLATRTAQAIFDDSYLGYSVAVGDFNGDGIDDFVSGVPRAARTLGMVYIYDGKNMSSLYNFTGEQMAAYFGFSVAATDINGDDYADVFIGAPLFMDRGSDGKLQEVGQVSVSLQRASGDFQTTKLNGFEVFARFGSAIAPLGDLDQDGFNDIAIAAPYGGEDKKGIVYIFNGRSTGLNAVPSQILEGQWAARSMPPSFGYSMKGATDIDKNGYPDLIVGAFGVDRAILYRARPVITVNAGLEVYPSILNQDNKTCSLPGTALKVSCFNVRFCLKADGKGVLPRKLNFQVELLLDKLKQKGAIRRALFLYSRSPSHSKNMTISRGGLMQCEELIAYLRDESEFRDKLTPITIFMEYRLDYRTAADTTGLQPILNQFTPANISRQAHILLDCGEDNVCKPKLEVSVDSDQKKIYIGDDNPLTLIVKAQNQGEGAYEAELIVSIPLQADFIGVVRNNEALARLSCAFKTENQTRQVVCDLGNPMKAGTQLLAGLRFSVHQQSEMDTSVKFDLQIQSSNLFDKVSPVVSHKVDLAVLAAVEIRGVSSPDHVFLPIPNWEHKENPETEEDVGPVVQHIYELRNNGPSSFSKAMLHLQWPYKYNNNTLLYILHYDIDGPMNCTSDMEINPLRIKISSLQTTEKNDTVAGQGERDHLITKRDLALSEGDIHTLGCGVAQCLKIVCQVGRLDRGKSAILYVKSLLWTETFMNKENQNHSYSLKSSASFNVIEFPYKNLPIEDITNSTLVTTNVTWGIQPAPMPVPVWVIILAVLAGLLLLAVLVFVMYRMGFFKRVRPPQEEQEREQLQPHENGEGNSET
Chain of integrin αvβ5 (P18084 24-799): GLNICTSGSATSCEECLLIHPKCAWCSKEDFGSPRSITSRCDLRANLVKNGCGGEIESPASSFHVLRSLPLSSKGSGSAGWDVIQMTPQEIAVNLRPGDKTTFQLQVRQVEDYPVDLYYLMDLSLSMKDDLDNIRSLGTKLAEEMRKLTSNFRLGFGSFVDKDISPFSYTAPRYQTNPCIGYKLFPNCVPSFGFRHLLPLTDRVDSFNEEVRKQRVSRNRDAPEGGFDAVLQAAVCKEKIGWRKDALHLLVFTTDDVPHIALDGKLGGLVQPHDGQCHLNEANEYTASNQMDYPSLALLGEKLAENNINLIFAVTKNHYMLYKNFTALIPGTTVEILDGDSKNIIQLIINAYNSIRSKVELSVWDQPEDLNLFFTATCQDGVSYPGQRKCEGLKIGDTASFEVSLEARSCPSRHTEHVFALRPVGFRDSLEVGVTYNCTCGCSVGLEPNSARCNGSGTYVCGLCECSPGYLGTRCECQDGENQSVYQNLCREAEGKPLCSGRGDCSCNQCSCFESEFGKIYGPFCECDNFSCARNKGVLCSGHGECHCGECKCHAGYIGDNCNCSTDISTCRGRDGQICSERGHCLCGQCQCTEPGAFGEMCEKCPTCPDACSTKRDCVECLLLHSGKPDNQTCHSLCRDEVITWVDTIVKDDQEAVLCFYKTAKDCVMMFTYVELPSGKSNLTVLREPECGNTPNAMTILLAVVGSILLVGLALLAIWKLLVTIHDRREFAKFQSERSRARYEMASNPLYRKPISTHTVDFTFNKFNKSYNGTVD
Chain of integrin αvβ3 (P06756 31-1048): as the sequence (P06756 31-1048) above
Chain of integrin αvβ3 (P05106 27-788): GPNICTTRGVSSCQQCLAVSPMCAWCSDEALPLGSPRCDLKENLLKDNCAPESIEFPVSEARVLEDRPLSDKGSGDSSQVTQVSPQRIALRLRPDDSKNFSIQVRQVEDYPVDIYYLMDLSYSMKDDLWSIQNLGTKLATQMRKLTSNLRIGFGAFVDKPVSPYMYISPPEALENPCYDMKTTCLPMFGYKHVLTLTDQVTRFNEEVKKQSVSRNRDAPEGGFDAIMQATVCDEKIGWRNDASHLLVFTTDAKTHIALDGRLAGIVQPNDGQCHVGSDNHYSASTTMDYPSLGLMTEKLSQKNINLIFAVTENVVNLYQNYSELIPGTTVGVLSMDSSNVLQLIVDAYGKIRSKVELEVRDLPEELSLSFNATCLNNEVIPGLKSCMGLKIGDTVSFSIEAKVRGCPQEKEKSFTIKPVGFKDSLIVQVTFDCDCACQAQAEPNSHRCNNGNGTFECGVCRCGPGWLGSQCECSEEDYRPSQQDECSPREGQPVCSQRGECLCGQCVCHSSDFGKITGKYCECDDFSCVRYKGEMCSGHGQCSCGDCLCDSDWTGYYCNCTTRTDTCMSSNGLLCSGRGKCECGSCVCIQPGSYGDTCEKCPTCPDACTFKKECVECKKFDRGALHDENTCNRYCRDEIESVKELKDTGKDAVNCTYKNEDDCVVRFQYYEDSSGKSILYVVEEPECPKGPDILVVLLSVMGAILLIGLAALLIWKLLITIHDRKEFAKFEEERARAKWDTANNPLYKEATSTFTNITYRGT
Chain of integrin α5β1 (P08648 42-1049): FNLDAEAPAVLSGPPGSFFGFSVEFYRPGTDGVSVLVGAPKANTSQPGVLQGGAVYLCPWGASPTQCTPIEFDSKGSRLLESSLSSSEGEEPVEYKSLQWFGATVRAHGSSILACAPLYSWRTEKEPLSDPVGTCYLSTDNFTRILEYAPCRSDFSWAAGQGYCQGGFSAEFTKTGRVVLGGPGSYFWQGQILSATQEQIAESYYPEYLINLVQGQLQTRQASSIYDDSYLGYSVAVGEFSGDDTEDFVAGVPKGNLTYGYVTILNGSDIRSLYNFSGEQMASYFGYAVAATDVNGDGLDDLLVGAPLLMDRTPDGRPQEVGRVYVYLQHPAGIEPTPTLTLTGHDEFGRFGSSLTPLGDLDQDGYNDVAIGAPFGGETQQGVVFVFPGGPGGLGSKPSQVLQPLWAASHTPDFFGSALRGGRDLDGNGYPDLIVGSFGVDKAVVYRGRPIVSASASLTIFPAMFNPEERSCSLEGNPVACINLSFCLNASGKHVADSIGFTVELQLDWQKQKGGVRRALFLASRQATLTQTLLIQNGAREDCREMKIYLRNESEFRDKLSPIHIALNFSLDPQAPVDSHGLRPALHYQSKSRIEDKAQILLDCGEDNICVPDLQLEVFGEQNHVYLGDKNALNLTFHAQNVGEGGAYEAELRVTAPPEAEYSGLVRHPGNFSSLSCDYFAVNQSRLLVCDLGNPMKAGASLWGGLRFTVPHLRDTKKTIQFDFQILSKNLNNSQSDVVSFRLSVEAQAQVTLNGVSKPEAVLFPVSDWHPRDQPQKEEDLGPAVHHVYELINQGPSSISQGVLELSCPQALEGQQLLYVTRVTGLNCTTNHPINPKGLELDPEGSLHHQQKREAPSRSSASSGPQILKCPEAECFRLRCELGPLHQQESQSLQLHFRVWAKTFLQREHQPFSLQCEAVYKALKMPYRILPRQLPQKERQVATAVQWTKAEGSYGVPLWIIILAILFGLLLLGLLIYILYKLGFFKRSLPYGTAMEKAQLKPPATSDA
Chain of integrin α5β1 (P05556 21-798): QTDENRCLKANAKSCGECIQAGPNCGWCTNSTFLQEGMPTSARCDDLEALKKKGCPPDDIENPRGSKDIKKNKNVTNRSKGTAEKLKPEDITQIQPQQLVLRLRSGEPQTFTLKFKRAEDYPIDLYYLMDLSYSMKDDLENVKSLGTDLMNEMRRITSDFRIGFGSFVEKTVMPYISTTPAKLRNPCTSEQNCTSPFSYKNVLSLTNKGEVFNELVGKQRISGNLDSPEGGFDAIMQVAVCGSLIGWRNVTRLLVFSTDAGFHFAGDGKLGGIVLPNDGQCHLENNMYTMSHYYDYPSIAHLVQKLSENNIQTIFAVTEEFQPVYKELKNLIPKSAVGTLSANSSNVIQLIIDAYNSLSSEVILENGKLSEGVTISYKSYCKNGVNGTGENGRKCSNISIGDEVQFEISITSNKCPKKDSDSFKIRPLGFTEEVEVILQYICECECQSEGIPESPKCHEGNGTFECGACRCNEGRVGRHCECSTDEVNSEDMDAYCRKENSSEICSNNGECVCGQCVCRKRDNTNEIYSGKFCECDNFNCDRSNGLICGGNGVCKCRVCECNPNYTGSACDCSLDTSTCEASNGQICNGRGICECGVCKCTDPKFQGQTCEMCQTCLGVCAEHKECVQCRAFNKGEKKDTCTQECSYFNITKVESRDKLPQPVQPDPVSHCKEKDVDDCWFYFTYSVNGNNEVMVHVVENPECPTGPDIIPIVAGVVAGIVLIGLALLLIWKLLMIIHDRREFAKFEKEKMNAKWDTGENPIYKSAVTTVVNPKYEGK

In the case of `COC(=O)[C@@H]1Cc2cn(C(=O)C(C)(C)C)c3c(cccc23)C2=CC(=O)N(CCCCCC(=O)NC3(CCCC3)C(=O)N1)C2=O`, the ring closure, isolated yield ([1]; from COC(=O)[C@H](Cc1cn(C(=O)C(C)(C)C)c2ccccc12)NC(=O)C1(NC(=O)CCCCCN2C(=O)C=CC2=O)CCCC1, 20-membered ring) is reported as 0%.

`COC(=O)[C@@H]1Cc2cn(C(=O)C(C)(C)C)c3c(cccc23)C2=CC(=O)N(CCCC[C@H](NC(=O)OC(C)(C)C)C(=O)N[C@@H](CCCNC(=N)NS(=O)(=O)c3c(C)c(C)c4c(c3C)CC(C)(C)O4)C(=O)NCC(=O)N[C@@H](CC(=O)OC(C)(C)C)C(=O)NCC(=O)N1)C2=O` showed a ring closure, isolated yield ([1]; from COC(=O)[C@H](Cc1cn(C(=O)C(C)(C)C)c2ccccc12)NC(=O)CNC(=O)[C@H](CC(=O)OC(C)(C)C)NC(=O)CNC(=O)[C@H](CCCNC(=N)NS(=O)(=O)c1c(C)c(C)c2c(c1C)CC(C)(C)O2)NC(=O)[C@H](CCCCN1C(=O)C=CC1=O)NC(=O)OC(C)(C)C, 29-membered ring) of 32%.

In the case of `COC(=O)[C@@H]1Cc2cn(C(=O)C(C)(C)C)c3c(cccc23)C2=CC(=O)N(CCC(=O)N[C@@H](CC(=O)OC(C)(C)C)C(=O)N[C@@H](C)C(=O)N[C@@H](C(C)C)C(=O)NCC(=O)N1)C2=O` [3-maleimidopropionyl-Asp(OtBu)-Ala-Val-Gly-Trp(Piv)-OMe], the ring closure, isolated yield ([1]; from COC(=O)[C@H](Cc1cn(C(=O)C(C)(C)C)c2ccccc12)NC(=O)CNC(=O)[C@@H](NC(=O)[C@H](C)NC(=O)[C@H](CC(=O)OC(C)(C)C)NC(=O)CCN1C(=O)C=CC1=O)C(C)C, 26-membered ring) is reported as 43%.

Work on `CC[C@H](C)[C@@H]1NC(=O)[C@H](Cc2ccccc2)NC(=O)[C@H](CCC(=O)OC(C)(C)C)NC(=O)CCN2C(=O)C=C(C2=O)c2cccc3c(cn(C(=O)C(C)(C)C)c23)C[C@@H](C(=O)OC)NC(=O)CNC1=O` [3-maleimidopropionyl-Glu(OtBu)-Phe-Ile-Gly-Trp(Piv)-OMe] yielded a ring closure, isolated yield ([1]; from CC[C@H](C)[C@H](NC(=O)[C@H](Cc1ccccc1)NC(=O)[C@H](CCC(=O)OC(C)(C)C)NC(=O)CCN1C(=O)C=CC1=O)C(=O)NCC(=O)N[C@@H](Cc1cn(C(=O)C(C)(C)C)c2ccccc12)C(=O)OC, 26-membered ring) of 35%.

For `COC(=O)[C@@H]1Cc2cn(C(=O)C(C)(C)C)c3c(cccc23)C2=CC(=O)N(CCCCCC(=O)N[C@@H](C)C(=O)NCC(=O)N1)C2=O` [6-maleimidohexanoyl-Ala-Gly-Trp(Piv)-OMe], the ring closure, isolated yield ([1]; from COC(=O)[C@H](Cc1cn(C(=O)C(C)(C)C)c2ccccc12)NC(=O)CNC(=O)[C@H](C)NC(=O)CCCCCN1C(=O)C=CC1=O, 23-membered ring) was 15%.

For `COC(=O)[C@@H]1Cc2c[nH]c3c(cccc23)C2=CC(=O)N(CCCC[C@H](N)C(=O)N[C@@H](CCCNC(=N)N)C(=O)NCC(=O)N[C@@H](CC(=O)O)C(=O)NCC(=O)N1)C2=O` [10a], the Kd (integrin αvβ3) was 0.675 µM, the kon (integrin αvβ3) was 42300 M⁻¹ s⁻¹ and the Kd (integrin α5β1) was 8.36 µM. For the same compound, the kon (integrin α5β1) was 15300 M⁻¹ s⁻¹, the Kd (integrin αvβ5) was 6.13 µM and the kon (integrin αvβ5) was 12500 M⁻¹ s⁻¹.

With `N=C(N)NCCC[C@@H]1NC(=O)[C@H](CCCCNC(=S)Nc2ccc3c(c2)C(=O)OC32c3ccc(O)cc3Oc3cc(O)ccc32)NC(=O)[C@@H](Cc2ccccc2)NC(=O)[C@H](CC(=O)O)NC(=O)CNC1=O` [10c, cyclo-(RGDfK (FITC)), reference compound] the Kd (integrin αvβ3) was 65.5 µM, the kon (integrin αvβ3) was 10300 M⁻¹ s⁻¹ and the Kd (integrin α5β1) was 2.76 µM. The kon (integrin α5β1) was 25400 M⁻¹ s⁻¹, the Kd (integrin αvβ5) was 4.13 µM and the kon (integrin αvβ5) was 23400 M⁻¹ s⁻¹.

Work on `COC(=O)[C@@H]1Cc2cn(C(=O)C(C)(C)C)c3c(cccc23)C2=CC(=O)N(CCCCCCCCCCC(=O)NCC(=O)NCC(=O)N1)C2=O` [11-maleimidoundecanoyl-Gly-Gly-Trp(Piv)-OMe] yielded a ring closure, isolated yield ([1]; from COC(=O)[C@H](Cc1cn(C(=O)C(C)(C)C)c2ccccc12)NC(=O)CNC(=O)CNC(=O)CCCCCCCCCCN1C(=O)C=CC1=O, 28-membered ring) of 38%.

With `COC(=O)[C@@H]1Cc2cn(C(=O)C(C)(C)C)c3c(cccc23)C2=CC(=O)N(CCCCCCCCCCC(=O)N1)C2=O` [11-maleimidoundecanoyl-Trp(Piv)-OMe] the ring closure, isolated yield ([1]; from COC(=O)[C@H](Cc1cn(C(=O)C(C)(C)C)c2ccccc12)NC(=O)CCCCCCCCCCN1C(=O)C=CC1=O, 22-membered ring) was 22%.

Work on `COC(=O)[C@@H]1Cc2cn(C(=O)C(C)(C)C)c3c(cccc23)C2=CC(=O)N(CCCC[C@H](NC(=O)OC(C)(C)C)C(=O)N[C@@H](C)C(=O)N[C@@H](Cc3ccccc3)C(=O)N[C@@H](CC(C)C)C(=O)NCC(=O)N1)C2=O` [Boc-Lys(Nε-maleimide)-Ala-Phe-Leu-Gly-Trp(Piv)-OMe] yielded a ring closure, isolated yield ([1]; from COC(=O)[C@H](Cc1cn(C(=O)C(C)(C)C)c2ccccc12)NC(=O)CNC(=O)[C@H](CC(C)C)NC(=O)[C@H](Cc1ccccc1)NC(=O)[C@H](C)NC(=O)[C@H](CCCCN1C(=O)C=CC1=O)NC(=O)OC(C)(C)C, 29-membered ring) of 35%.

For `CC[C@H](C)[C@@H]1NC(=O)[C@@H](NC(=O)OC(C)(C)C)CCCCN2C(=O)C=C(C2=O)c2cccc3c(cn(C(=O)C(C)(C)C)c23)C[C@@H](C(=O)N[C@H](C(=O)OC)[C@@H](C)CC)NC(=O)CNC(=O)[C@H](C)NC1=O` [Boc-Lys(Nε-maleimide)-Ile-Ala-Gly-Trp(Piv)-Ile-OMe], the ring closure, isolated yield ([1]; from CC[C@H](C)[C@H](NC(=O)[C@H](CCCCN1C(=O)C=CC1=O)NC(=O)OC(C)(C)C)C(=O)N[C@@H](C)C(=O)NCC(=O)N[C@@H](Cc1cn(C(=O)C(C)(C)C)c2ccccc12)C(=O)N[C@H](C(=O)OC)[C@@H](C)CC, 26-membered ring) was 32%.

With `COC(=O)[C@@H]1Cc2cn(C(=O)C(C)(C)C)c3c(cccc23)C2=CC(=O)N(CCCC[C@H](NC(=O)OC(C)(C)C)C(=O)N1)C2=O` [Boc-Lys(Nε-maleimide)-Trp(Piv)-OMe] the ring closure, isolated yield ([1]; from COC(=O)[C@H](Cc1cn(C(=O)C(C)(C)C)c2ccccc12)NC(=O)[C@H](CCCCN1C(=O)C=CC1=O)NC(=O)OC(C)(C)C, 17-membered ring) was 0%.

Compound `COC(=O)[C@@H]1Cc2cn(C(=O)C(C)(C)C)c3c(cccc23)C2=CC(=O)N(CCCC[C@H](NC(=O)OC(C)(C)C)C(=O)N[C@@H](C(C)C)C(=O)N[C@@H](Cc3ccccc3)C(=O)NCC(=O)N1)C2=O` [Boc-Lys(Nε-maleimide)-Val-Phe-Gly-Trp(Piv)-OMe] has a ring closure, isolated yield ([1]; from COC(=O)[C@H](Cc1cn(C(=O)C(C)(C)C)c2ccccc12)NC(=O)CNC(=O)[C@H](Cc1ccccc1)NC(=O)[C@@H](NC(=O)[C@H](CCCCN1C(=O)C=CC1=O)NC(=O)OC(C)(C)C)C(C)C, 26-membered ring) of 39%.

For `CC[C@H](C)[C@@H]1NC(=O)[C@H](C(C)(C)C)NC(=O)[C@@H](NC(=O)OC(C)(C)C)Cc2cn(C(=O)C(C)(C)C)c3c(cccc23)C2=CC(=O)N(CCCC[C@@H](C(=O)OC)NC(=O)CNC1=O)C2=O` [Boc-Trp(Piv)-Tle-Ile-Gly-Lys(Nε-maleimide)-OMe], the ring closure, isolated yield ([1]; from CC[C@H](C)[C@H](NC(=O)[C@@H](NC(=O)[C@H](Cc1cn(C(=O)C(C)(C)C)c2ccccc12)NC(=O)OC(C)(C)C)C(C)(C)C)C(=O)NCC(=O)N[C@@H](CCCCN1C(=O)C=CC1=O)C(=O)OC, 26-membered ring) was 34%.

In the case of `COC(=O)[C@@H]1Cc2c[nH]c3c(cccc23)C2C(=O)N(CCCC[C@H](N)C(=O)N[C@@H](CCCNC(=N)N)C(=O)NCC(=O)N[C@@H](CC(=O)O)C(=O)NCC(=O)N1)C(=O)C2SCCC(=O)NCC(=O)N[C@@H](Cc1ccccc1)C(=O)N[C@@H](CC(C)C)C(=O)NCC(=O)N[C@H]1C[C@H](O[C@H]2C[C@](O)(C(=O)CO)Cc3c(O)c4c(c(O)c32)C(=O)c2c(OC)cccc2C4=O)O[C@@H](C)[C@H]1O` (stereo partly drawn) [RGD-GFLG-DOX], the “cytotoxicity (in words)” value (MCF-7 cells) is reported as “lower cytotoxicity”, the “cytotoxicity (in words)” value (LO2 cells) is reported as “lower cytotoxicity” and the “cytotoxicity (in words)” value (A549 cells) is reported as “stronger cytotoxicity than DOX”. The “cytotoxicity (in words)” value (MIHA cells) was “lower cytotoxicity”, the “cytotoxicity (in words)” value (HeLa cells) was “lower cytotoxicity” and the “cytotoxicity (in words)” value (U87MG cells) was “stronger cytotoxicity than DOX”.
